Laboratory results: PubChem BioAssay AID1963967 (Molecular Pharmacology Branch, DTP, NCI, 2024)
pIC50: −log10 of the molar value.

System: 855422-203-R-J1-PDC spheroids with HUVEC/MSC, viability
Assay: Anticancer human tumor 855422-203-R-J1-PDC patient-derived bladder carcinoma cell line growth inhibition [PI3K]
Conditions: for pIC50: curve of first compound; for viability, T/C: stronger effect = lower value
How it was run: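 Viability of mixed-cell spheroids was determined after exposure to pairwise combinations, one partner being inavolisib, alpelisib, duvelisib or copanlisib. Highest tested concentration matched clinical Cmax where known and 10 microM where not, descending in half-log steps.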

[1] = second compound 0.0316 µM, first compound 0.0316 µM
[2] = second compound 0.0316 µM, first compound 0.1 µM
[3] = second compound 0.0316 µM, first compound 0.316 µM
[4] = second compound 0.0316 µM, first compound 1 µM
[5] = second compound 0.0316 µM, first compound 3.16 µM
[6] = second compound 0.0316 µM, first compound 10 µM
[7] = second compound 0.1 µM, first compound 0.0316 µM
[8] = second compound 0.1 µM, first compound 0.1 µM
[9] = second compound 0.1 µM, first compound 0.316 µM
[10] = second compound 0.1 µM, first compound 1 µM
[11] = second compound 0.1 µM, first compound 3.16 µM
[12] = second compound 0.1 µM, first compound 10 µM
[13] = second compound 0.316 µM, first compound 0.0316 µM
[14] = second compound 0.316 µM, first compound 0.1 µM
[15] = second compound 0.316 µM, first compound 0.316 µM
[16] = second compound 0.316 µM, first compound 1 µM
[17] = second compound 0.316 µM, first compound 3.16 µM
[18] = second compound 0.316 µM, first compound 10 µM
[19] = second compound 1 µM, first compound 0.0316 µM
[20] = second compound 1 µM, first compound 0.1 µM
[21] = second compound 1 µM, first compound 0.316 µM
[22] = second compound 1 µM, first compound 1 µM
[23] = second compound 1 µM, first compound 3.16 µM
[24] = second compound 1 µM, first compound 10 µM
[25] = second compound 3.16 µM, first compound 0.0316 µM
[26] = second compound 3.16 µM, first compound 0.1 µM
[27] = second compound 3.16 µM, first compound 0.316 µM
[28] = second compound 3.16 µM, first compound 1 µM
[29] = second compound 3.16 µM, first compound 3.16 µM
[30] = second compound 3.16 µM, first compound 10 µM
[31] = second compound 10 µM, first compound 0.0316 µM
[32] = second compound 10 µM, first compound 0.1 µM
[33] = second compound 10 µM, first compound 0.316 µM
[34] = second compound 10 µM, first compound 1 µM
[35] = second compound 10 µM, first compound 3.16 µM
[36] = second compound 10 µM, first compound 10 µM
[37] = second compound 0.00316 µM, first compound 0.0316 µM
[38] = second compound 0.00316 µM, first compound 0.1 µM
[39] = second compound 0.00316 µM, first compound 0.316 µM
[40] = second compound 0.00316 µM, first compound 1 µM
[41] = second compound 0.00316 µM, first compound 3.16 µM
[42] = second compound 0.00316 µM, first compound 10 µM
[43] = second compound 0.01 µM, first compound 0.0316 µM
[44] = second compound 0.01 µM, first compound 0.1 µM
[45] = second compound 0.01 µM, first compound 0.316 µM
[46] = second compound 0.01 µM, first compound 1 µM
[47] = second compound 0.01 µM, first compound 3.16 µM
[48] = second compound 0.01 µM, first compound 10 µM
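Note: agents incubated with spheroids for one week before read-out.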
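Throughout, for viability, T/C: 100% = DMSO vehicle-treated control wells.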

Compound: C[C@@H](NC(=O)c1ncnc(N)c1Cl)c1ncc(C(=O)Nc2cc(C(F)(F)F)c(Cl)cn2)s1 + Cc1nc(NC(=O)N2CCCC2C(N)=O)sc1-c1ccnc(C(C)(C)C(F)(F)F)c1
- pIC50 (second compound 0.0316 µM): < 5.00
- pIC50 (second compound 0.1 µM): < 5.00
- pIC50 (second compound 0.316 µM): < 5.00
- pIC50 (second compound 1 µM): 5.34
- pIC50 (second compound 3.16 µM): > 7.50
- pIC50 (second compound 10 µM): > 7.50
- viability, T/C [1]: 97.8%
- viability, T/C [2]: 85.9%
- viability, T/C [3]: 118%
- viability, T/C [4]: 100%
- viability, T/C [5]: 118%
- viability, T/C [6]: 109%
- viability, T/C [7]: 72.7%
- viability, T/C [8]: 86.8%
- viability, T/C [9]: 104%
- viability, T/C [10]: 91.2%
- viability, T/C [11]: 111%
- viability, T/C [12]: 93.4%
- viability, T/C [13]: 73.1%
- viability, T/C [14]: 85.9%
- viability, T/C [15]: 94.3%
- viability, T/C [16]: 85.8%
- viability, T/C [17]: 94.6%
- viability, T/C [18]: 60.9%
- viability, T/C [19]: 70.1%
- viability, T/C [20]: 67.2%
- viability, T/C [21]: 51.2%
- viability, T/C [22]: 68.6%
- viability, T/C [23]: 62.3%
- viability, T/C [24]: 23.4%
- viability, T/C [25]: 39.3%
- viability, T/C [26]: 44.6%
- viability, T/C [27]: 30.9%
- viability, T/C [28]: 42.8%
- viability, T/C [29]: 33.5%
- viability, T/C [30]: 14.3%
- viability, T/C [31]: 25%
- viability, T/C [32]: 18.9%
- viability, T/C [33]: 24.3%
- viability, T/C [34]: 18.8%
- viability, T/C [35]: 11.7%
- viability, T/C [36]: 4.33%

Compound: CC(C)NCC(C(=O)N1CCN(c2ncnc3c2C(C)CC3O)CC1)c1ccc(Cl)cc1 (stereo not given) + COc1c(OCCCN2CCOCC2)ccc2c3n(c(=NC(=O)c4cnc(N)nc4)nc12)CCN3
- pIC50 (second compound 0.00316 µM): 5.95
- pIC50 (second compound 0.01 µM): 5.72
- pIC50 (second compound 0.0316 µM): 6.01
- pIC50 (second compound 0.1 µM): > 7.50
- pIC50 (second compound 0.316 µM): > 7.50
- pIC50 (second compound 1 µM): > 7.50
- viability, T/C [37]: 108%
- viability, T/C [38]: 62%
- viability, T/C [39]: 71.9%
- viability, T/C [40]: 57.4%
- viability, T/C [41]: 41%
- viability, T/C [42]: 18.8%
- viability, T/C [43]: 79%
- viability, T/C [44]: 73.3%
- viability, T/C [45]: 67%
- viability, T/C [46]: 62%
- viability, T/C [47]: 42%
- viability, T/C [48]: 15.5%
- viability, T/C [1]: 63.3%
- viability, T/C [2]: 64.3%
- viability, T/C [3]: 55.6%
- viability, T/C [4]: 51.3%
- viability, T/C [5]: 23%
- viability, T/C [6]: 12.6%
- viability, T/C [7]: 30.3%
- viability, T/C [8]: 30.1%
- viability, T/C [9]: 35.3%
- viability, T/C [10]: 24.7%
- viability, T/C [11]: 15.5%
- viability, T/C [12]: 6.96%
- viability, T/C [13]: 11.1%
- viability, T/C [14]: 10.8%
- viability, T/C [15]: 11.4%
- viability, T/C [16]: 10.5%
- viability, T/C [17]: 6%
- viability, T/C [18]: 3.59%
- viability, T/C [19]: 5.39%
- viability, T/C [20]: 4.74%
- viability, T/C [21]: 4.07%
- viability, T/C [22]: 4.44%
- viability, T/C [23]: 2.79%
- viability, T/C [24]: 1.58%

Compound: CC1(C)CCC(Nc2ncc(C(F)(F)F)c(-c3c[nH]c4c(P(C)(C)=O)c(C#N)ccc34)n2)CN1 (stereo not given) + CC(Nc1ccc2c(c1)OCCn1cc(N3C(=O)OCC3C(F)F)nc1-2)C(N)=O
- pIC50 (second compound 0.00316 µM): > 7.50
- pIC50 (second compound 0.01 µM): > 7.50
- pIC50 (second compound 0.0316 µM): > 7.50
- pIC50 (second compound 0.1 µM): > 7.50
- pIC50 (second compound 0.316 µM): > 7.50
- pIC50 (second compound 1 µM): > 7.50
- viability, T/C [37]: 23.7%
- viability, T/C [38]: 25%
- viability, T/C [39]: 27.9%
- viability, T/C [40]: 31.6%
- viability, T/C [41]: 31.4%
- viability, T/C [42]: 3.85%
- viability, T/C [43]: 20.4%
- viability, T/C [44]: 21.3%
- viability, T/C [45]: 26.2%
- viability, T/C [46]: 25.8%
- viability, T/C [47]: 29.1%
- viability, T/C [48]: 3.78%
- viability, T/C [1]: 20.2%
- viability, T/C [2]: 22.9%
- viability, T/C [3]: 22.2%
- viability, T/C [4]: 24.6%
- viability, T/C [5]: 24.1%
- viability, T/C [6]: 2.13%
- viability, T/C [7]: 20.2%
- viability, T/C [8]: 19.4%
- viability, T/C [9]: 20%
- viability, T/C [10]: 23.2%
- viability, T/C [11]: 21.5%
- viability, T/C [12]: 3.77%
- viability, T/C [13]: 15.3%
- viability, T/C [14]: 17.9%
- viability, T/C [15]: 15.7%
- viability, T/C [16]: 15.5%
- viability, T/C [17]: 13.7%
- viability, T/C [18]: 1.23%
- viability, T/C [19]: 14.4%
- viability, T/C [20]: 14.2%
- viability, T/C [21]: 13.1%
- viability, T/C [22]: 12.6%
- viability, T/C [23]: 11.4%
- viability, T/C [24]: 0.83%

Compound: CC(C)NCC(C(=O)N1CCN(c2ncnc3c2C(C)CC3O)CC1)c1ccc(Cl)cc1 (stereo not given) + CC(Nc1ccc2c(c1)OCCn1cc(N3C(=O)OCC3C(F)F)nc1-2)C(N)=O
- pIC50 (second compound 0.00316 µM): 6.08
- pIC50 (second compound 0.01 µM): 5.95
- pIC50 (second compound 0.0316 µM): 5.94
- pIC50 (second compound 0.1 µM): 6.17
- pIC50 (second compound 0.316 µM): > 7.50
- pIC50 (second compound 1 µM): > 7.50
- viability, T/C [37]: 107%
- viability, T/C [38]: 65.8%
- viability, T/C [39]: 70.4%
- viability, T/C [40]: 45.3%
- viability, T/C [41]: 38.7%
- viability, T/C [42]: 20.4%
- viability, T/C [43]: 82.2%
- viability, T/C [44]: 65.8%
- viability, T/C [45]: 71.3%
- viability, T/C [46]: 51.5%
- viability, T/C [47]: 32.2%
- viability, T/C [48]: 18.4%
- viability, T/C [1]: 66.6%
- viability, T/C [2]: 70%
- viability, T/C [3]: 67.7%
- viability, T/C [4]: 49.1%
- viability, T/C [5]: 34.8%
- viability, T/C [6]: 16.4%
- viability, T/C [7]: 65.8%
- viability, T/C [8]: 63.6%
- viability, T/C [9]: 61.9%
- viability, T/C [10]: 42.8%
- viability, T/C [11]: 27.2%
- viability, T/C [12]: 12.4%
- viability, T/C [13]: 47.6%
- viability, T/C [14]: 49.6%
- viability, T/C [15]: 45.8%
- viability, T/C [16]: 38.3%
- viability, T/C [17]: 24%
- viability, T/C [18]: 11.9%
- viability, T/C [19]: 39.2%
- viability, T/C [20]: 36.5%
- viability, T/C [21]: 31.4%
- viability, T/C [22]: 28.3%
- viability, T/C [23]: 20.9%
- viability, T/C [24]: 10.5%

Compound: Cn1nccc1Nc1nccc(-c2ccn(C(CO)c3ccc(Cl)c(F)c3)c(=O)c2)n1 (stereo not given) + Cc1nc(NC(=O)N2CCCC2C(N)=O)sc1-c1ccnc(C(C)(C)C(F)(F)F)c1
- pIC50 (second compound 0.0316 µM): 5.02
- pIC50 (second compound 0.1 µM): 5.09
- pIC50 (second compound 0.316 µM): 5.16
- pIC50 (second compound 1 µM): 5.37
- pIC50 (second compound 3.16 µM): > 7.50
- pIC50 (second compound 10 µM): > 7.50
- viability, T/C [1]: 106%
- viability, T/C [2]: 95.9%
- viability, T/C [3]: 103%
- viability, T/C [4]: 89%
- viability, T/C [5]: 86.4%
- viability, T/C [6]: 47.5%
- viability, T/C [7]: 99.3%
- viability, T/C [8]: 93.3%
- viability, T/C [9]: 94.8%
- viability, T/C [10]: 85.9%
- viability, T/C [11]: 85%
- viability, T/C [12]: 43.2%
- viability, T/C [13]: 96%
- viability, T/C [14]: 89.3%
- viability, T/C [15]: 96.4%
- viability, T/C [16]: 92.2%
- viability, T/C [17]: 87.9%
- viability, T/C [18]: 32.8%
- viability, T/C [19]: 70.1%
- viability, T/C [20]: 70.1%
- viability, T/C [21]: 63.4%
- viability, T/C [22]: 67.5%
- viability, T/C [23]: 61.5%
- viability, T/C [24]: 17.9%
- viability, T/C [25]: 42.3%
- viability, T/C [26]: 39.6%
- viability, T/C [27]: 40.7%
- viability, T/C [28]: 35.2%
- viability, T/C [29]: 26.9%
- viability, T/C [30]: 10.1%
- viability, T/C [31]: 24.6%
- viability, T/C [32]: 21.6%
- viability, T/C [33]: 19.4%
- viability, T/C [34]: 14.4%
- viability, T/C [35]: 8.05%
- viability, T/C [36]: 4.78%
